Measurements reported in publication PMC1930153, “Engineering the Melanocortin-4 Receptor to Control Constitutive and Ligand-Mediated Gs Signaling In Vivo” (PLoS ONE, 2007).
Each block holds one compound with its values, some of them ahead of it.

Experiments:
Assay type in all cases: cell-based
wild-type MC4R [1] = biological target: T1, wild-type MC4R (Homo sapiens, UniProt P32245); assay: Receptor internalization (cell-surface FLAG ELISA), HEK293 cells stably expressing wild-type MC4R; settings: WT MC4R, 2-h exposure
T1 construct: prolactin signal peptide (N); expressed in transfected cells; host or cells: HEK293
Procedure: (§1) HEK293 cells were maintained in Dulbecco's modified Eagle's medium supplemented with 10% fetal bovine serum containing L-glutamine. Wild-type and mutant MC4R were transfected into HEK 293 cells with Lipofectamine (Invitrogen). For the internalization assays, stable cell lines expressing wild-type or RASSL-MC4R were generated by G418-mediated selection (10 µg/ml) of clones expressing the neomycin-resistance gene cotransfected with MC4R. Stable cell lines were maintained by selection with 5 µg/ml G418.
(§2) Cell-surface expression of receptors was measured with an enzyme-linked immunosorbent assay (ELISA) that detects the extracellular FLAG tag. Transiently transfected cells were plated at 1×10^5/well into 96-well plates coated with poly-D-lysine (Sigma). […] Forty-eight h after transfection, cells were fixed in 4% paraformaldehyde (Sigma) for 10 min at 4°C. After two washes in phosphate-buffered saline, the cells were incubated in 1 µg/ml M1 anti-FLAG antibody (Sigma) for 2 h at room temperature, washed twice in phosphate-buffered saline, and incubated for 1 h at room temperature with horseradish peroxidase–conjugated goat-anti-mouse (1∶1000, BioRad, Chicago, IL). […] After 15–60 min, the optical density was read at 405 nm in a spectrophotometer. […]

MC4R E100A = biological target: T2, MC4R E100A (Homo sapiens, UniProt P32245, E100A); assay: cAMP assay, E100A MC4R mutant in HEK293 cells
T2 construct: prolactin signal peptide (N); green fluorescent protein (N); expressed in transfected cells; host or cells: HEK293
Procedure: as §1
(§3) cAMP production was measured with an ultra sensitive enzymatic cAMP assay (CatchPoint, Molecular Devices, Sunnyvale, CA). Transiently transfected cells were plated at 1×10^5/well into 96-well plates coated with poly-D-lysine (Sigma). Forty-eight h after transfection, cells were rinsed in Krebs-Ringer bicarbonate buffer containing glucose (Sigma) and incubated in pre-stimulation buffer containing 0.75 mM 3-isobutyl-1-methylxanthine in the same buffer for 10 min at room temperature. […] The cells were lysed, and cAMP accumulation was measured according to the CatchPoint protocol. cAMP generated under the different experimental conditions was interpolated from a cAMP standard curve for each experiment. […] Emax and EC50 values were calculated with SoftMax Pro. cAMP measurements were performed on transiently transfected cells.

Rm1 (L106P) = biological target: T3, Rm1 (L106P) (Homo sapiens, UniProt P32245, L106P); assay: Receptor internalization (cell-surface FLAG ELISA), HEK293 cells stably expressing Rm1
T3 construct: prolactin signal peptide (N); green fluorescent protein (N); expressed in transfected cells; host or cells: HEK293
Procedure: as §1, §2

Rm2 (D122A) = biological target: T4, Rm2 (D122A) (Homo sapiens, UniProt P32245, D122A); assay: Receptor internalization (cell-surface FLAG ELISA), HEK293 cells stably expressing Rm2
T4 construct: prolactin signal peptide (N); green fluorescent protein (N); expressed in transfected cells; host or cells: HEK293
Procedure: as §1, §2

MC4R N97D = biological target: T5, MC4R N97D (Homo sapiens, UniProt P32245, N97D); assay: cAMP assay, N97D MC4R mutant in HEK293 cells
T5 construct: prolactin signal peptide (N); green fluorescent protein (N); expressed in transfected cells; host or cells: HEK293
Procedure: as §1, §3

wild-type MC4R [2] = biological target: T1, wild-type MC4R; assay: cAMP assay, wild-type MC4R in transiently transfected HEK293 cells
Procedure: as §1, with “Wild-type and mutant MC4R were transfected into HEK 293 cells with Lipofectamine (Invitrogen).” left out
(§4) cAMP production was measured with an ultra sensitive enzymatic cAMP assay (CatchPoint, Molecular Devices, Sunnyvale, CA). Transiently transfected cells were plated at 1×10^5/well into 96-well plates coated with poly-D-lysine (Sigma). Forty-eight h after transfection, cells were rinsed in Krebs-Ringer bicarbonate buffer containing glucose (Sigma) and incubated in pre-stimulation buffer containing 0.75 mM 3-isobutyl-1-methylxanthine in the same buffer for 10 min at room temperature. […] The cells were lysed, and cAMP accumulation was measured according to the CatchPoint protocol. cAMP generated under the different experimental conditions was interpolated from a cAMP standard curve for each experiment. Four replicates were used for each condition, and all experiments were repeated at least three times. Emax and EC50 values were calculated with SoftMax Pro. cAMP measurements were performed on transiently transfected cells.

L106P-MC4R (Rm1) = biological target: T6, L106P-MC4R (Rm1) (Homo sapiens, UniProt P32245, L106P); assay: cAMP assay, L106P MC4R (Rm1) in HEK293 cells
T6 construct: prolactin signal peptide (N); green fluorescent protein (N); expressed in transfected cells; host or cells: HEK293
Procedure: as §1, with “Wild-type and mutant MC4R were transfected into HEK 293 cells with Lipofectamine (Invitrogen).” left out
as §4

D122A-MC4R (Rm2) = biological target: T7, D122A-MC4R (Rm2) (Homo sapiens, UniProt P32245, D122A); assay: cAMP assay, D122A MC4R (Rm2) in HEK293 cells
T7 construct: prolactin signal peptide (N); green fluorescent protein (N); expressed in transfected cells; host or cells: HEK293
Procedure: as §1, with “Wild-type and mutant MC4R were transfected into HEK 293 cells with Lipofectamine (Invitrogen).” left out
as §4

MC4R G98R = biological target: T8, MC4R G98R (Homo sapiens, UniProt P32245, G98R); assay: cAMP assay, G98R MC4R mutant in HEK293 cells
T8 construct: prolactin signal peptide (N); green fluorescent protein (N); expressed in transfected cells; host or cells: HEK293
Procedure: as §1, §3

MC4R I102S = biological target: T9, MC4R I102S (Homo sapiens, UniProt P32245, I102S); assay: cAMP assay, I102S MC4R mutant in HEK293 cells
T9 construct: prolactin signal peptide (N); green fluorescent protein (N); expressed in transfected cells; host or cells: HEK293
Procedure: as §1, §3

MC4R S127L = biological target: T10, MC4R S127L (Homo sapiens, UniProt P32245, S127L); assay: cAMP assay, S127L MC4R mutant in HEK293 cells
T10 construct: prolactin signal peptide (N); green fluorescent protein (N); expressed in transfected cells; host or cells: HEK293
Procedure: as §1, §3

MC4R D126A = biological target: T11, MC4R D126A (Homo sapiens, UniProt P32245, D126A); assay: cAMP assay, D126A MC4R mutant in HEK293 cells
T11 construct: prolactin signal peptide (N); green fluorescent protein (N); expressed in transfected cells; host or cells: HEK293
Procedure: as §1, §3

wild-type MC4R [3] = biological target: T1, wild-type MC4R; assay: Cell-surface expression ELISA, transiently transfected HEK293 cells, wild-type MC4R; settings: WT MC4R, transient transfection; α-MSH 1 µM
Procedure: as §1, §2

Compound: O=C(N[C@H](Cc1ccc(Cl)cc1)C(=O)N1CCC(Cn2cncn2)(C2CCCCC2)CC1)[C@H]1Cc2ccccc2CN1 (relative stereo) [THIQ]
Internalization in words (time course) (wild-type MC4R [1]; 1 µM ligand): did not result in internalization
Receptor sequestration in words (wild-type MC4R [1]; increasing concentrations): did not cause sequestration
Emax (% of WT) (MC4R E100A): 44.54±4.9 % of WT
Internalization in words (time course) (Rm1 (L106P); Rm1, 1 µM ligand, 2-h exposure): did not internalize
Receptor sequestration/internalization in words (Rm1 (L106P); Rm1, 2-h exposure, increasing concentrations): did not cause sequestration
Decrease in cell-surface expression (Rm2 (D122A); Rm2, 1 µM ligand): about 20%
Receptor sequestration/internalization in words (Rm2 (D122A); Rm2, 2-h exposure, increasing concentrations): did not cause sequestration
Emax (% of WT) (MC4R N97D): 43.1±3.1 % of WT
Emax (% of WT) (wild-type MC4R [2]; cAMP, 2 h stimulation): 100 % of WT
Emax (% of WT) (L106P-MC4R (Rm1); cAMP, L106P (Rm1)): 73.4±14.8 % of WT
Emax (% of WT) (D122A-MC4R (Rm2); cAMP, D122A (Rm2)): 90.3±6.2 % of WT
Emax (% of WT) (MC4R G98R): 2.6±0.6 % of WT
Emax (% of WT) (MC4R I102S): 49.2±2.2 % of WT
Emax (% of WT) (MC4R S127L): 21.7±3.5 % of WT
Emax (% of WT) (MC4R D126A): 50.7±3.6 % of WT

Activation (cAMP release) in words (wild-type MC4R [2]; WT MC4R, increasing concentrations): full activation
Activation (cAMP release) in words (L106P-MC4R (Rm1); Rm1, increasing concentrations): no activation
Activation (cAMP release) in words (D122A-MC4R (Rm2); Rm2, increasing concentrations): no activation
Compound: CSCC[C@H](NC(=O)[C@H](CCCNC(=N)N)NC(=O)[C@H](Cc1ccc(O)cc1)NC(=O)[C@@H]1CCCN1C(=O)CNC(=O)[C@H](CCC(=O)O)NC(=O)[C@H](CC(=O)O)NC(=O)[C@H](CCCCN)NC(=O)[C@H](CCCCN)NC(=O)[C@H](CCC(=O)O)NC(=O)[C@H](C)N)C(=O)N[C@@H](CCC(=O)O)C(=O)N[C@@H](Cc1c[nH]cn1)C(=O)N[C@@H](Cc1ccccc1)C(=O)N[C@@H](CCCNC(=N)N)C(=O)N[C@@H](Cc1c[nH]c2ccccc12)C(=O)NCC(=O)N[C@@H](CO)C(=O)N1CCC[C@H]1C(=O)N1CCC[C@H]1C(=O)N[C@@H](CCCCN)C(=O)N[C@@H](CC(=O)O)C(=O)O [β-MSH]

Antagonism when co-administered with THIQ (L106P-MC4R (Rm1); Rm1, cAMP): full antagonist
Compound: agouti-related peptide (SSRRCVRLHESCLGQQVPCCDPCATCYCRFFNAFCYCRKLGTAMNPCSRT; UniProt O00253 83-132, looked up) [AGRP]
Effect on cell-surface expression in words (wild-type MC4R [3]): stabilized receptor expression on the cell surface
